In patent US20100234243A1, “PTU COMPOUNDS FOR PROMOTING THE IN VITRO CULTURE OF (HIGHLY PIGMENTED) MELANOCYTES” (L'OREAL, priority 2004, published 2010):

Columns and labels:
Format in all cases: cell-based, human
[1] = test system: melanocytes of phototype VI (African); assay: Determination of the non-cytotoxic concentration of PTU (cell adherence, observed under a microscope); conditions: for adherent cells (viability): primary culture without PTU 80%
Protocol: a) Preparation of a Primary Culture of […] Melanocytes: The melanocytes were obtained from a foreskin of a child according to the following protocol: the skin is cut into fragments of 6 mm and incubated at +4° C. overnight in the presence of 0.25% trypsin. The epidermis is then separated from the dermis in foetal calf serum. The pieces of dermis are scraped in order to recover the basal cells and the melanocytes. The epidermal fragments are then vortexed and the cells are then centrifuged at […] for 5 min. These cells (mixture of melanocytes and keratinocytes) are counted and seeded at a density of 8 to 15×10^6 cells per 75 cm^2 flask, in 18 to 20 ml of M2 medium (Promocell). The melanocytes are then purified according to the following protocol: the culture medium is changed 3 times a week and when the cells are confluent, the flasks are emptied and rinsed once with PBS-Ca^2+Mg^2+. 3 ml of trypsin-EDTA are then added per flask and the flasks are incubated at ambient temperature for 3-4 min: the melanocytes detach whereas the keratinocytes remain attached to the flask. An equivalent volume of M2 medium is added and the detached cells are counted and seeded at a density of 10^6 cells per 75 cm^2 flask, in 18 to 20 ml of M2 medium (Promocell). A primary culture of […] human melanocytes is thus obtained. The trypsinization is repeated when the melanocytes reach confluency (passage 1 et seq.). The melanocytes in the primary culture are 80% viable, i.e., 80% of the melanocytes adhere to the flask. b) Determination of the Non-Cytotoxic Concentration of PTU: Reversible Effect: Part of the primary culture of melanocytes is treated with PTU (Sigma) at the concentrations of 5 μM, 10 μM and 50 μM, at passage 2/3 or preferably from the first passage. The cytotoxicity of the effect of the PTU is evaluated by observing the cells under a microscope.

[2] = test system: melanocytes of phototype VI (African); assay: Pigmentation (luminance L*) and melanogenesis inhibition in melanocyte cultures
Protocol: The pigmentation of the melanocytes of phototype VI (African), treated with 10 μM PTU or not treated, is measured by the value L* (luminance) of the cultures given by the spectrocolorimeter (FIG. 1). […] Melanin synthesis is decreased during treatment and becomes normal again in the absence of treatment. The IC50 of PTU (i.e., the concentration of PTU for which 50% inhibition of melanogenesis is observed compared with the control on cultures of melanocytes of phototype VI (African), is evaluated from 50 μM to 100 μM.

[3] = test system: melanocytes of phototype VI (African); assay: Effect of PTU on proliferation of melanocytes (amount of cells obtained per passage)
[4] = test system: melanocytes of phototype VI (African); assay: Viability of melanocytes after freezing, thawing and re-culturing; conditions: PTU 10 μM before freezing; non-treated 5%
Protocol: They are then centrifuged and the pellet is resuspended in foetal calf serum+10% DMSO at a concentration of 10^6 cells/ml. The cells are frozen in cryotubes at −80° C. After 24 h, the tubes are transferred into liquid nitrogen at −196° C. For the thawing, the tubes are placed in a water bath at 37° C. and, after rapid thawing, 5 ml of M2 medium are added. The cells are centrifuged at 190 g for 5 min, the pellet is resuspended in M2 medium, and the cells are seeded into a flask and re-cultured under the conditions described in a).

[5] = test system: melanocytes of phototype VI (African) in reconstructed epidermis; assay: Functionality of PTU-multiplied melanocytes in reconstructed epidermis (DOPA reaction, Fontana-Masson staining); conditions: melanocytes multiplied beforehand with 5 μM or 10 μM PTU, treatment stopped
Protocol: The support is rinsed in the culture medium and then possibly coated with collagen type IV, fibronectin or laminin, for example. After contact at +4° C. overnight, the keratinocytes and the melanocytes of phototype VI (African) multiplied beforehand in the presence of 5 μM or 10 μM PTU, as described in Example 1, are then seeded onto said support. The culture can then be maintained immersed in a medium for keratinocytes in the presence of growth factor. After an incubation time of 3 to 5 days, the skin equivalent of phototype VI (African) undergoing formation is maintained at the air/liquid interface, for example by deposition onto a metal screen or removal of the culture medium present at the surface of an insert. The liquid then preferentially consists of the same nutritive medium as the previous one, but in which the growth factors have been reduced. The incubation then continues until a skin equivalent of phototype VI (African) is obtained. Thus, the incubation continues for a period of from 5 to 30 days, preferentially from 7 to 10 days. The reconstructed skin model of phototype VI (African) thus produced comprises two entities, the support, dermal equivalent, and the epidermal equivalent, which can be physically separated from one another. […] This enzyme is responsible for the oxidation of tyrosine to […] (DOPA) and then for the oxidation of DOPA to DOPA-quinone. […]

[6] = test system: epidermis reconstructed from melanocytes of phototype VI (African); assay: Depigmenting activity on reconstructed epidermis (luminance L* by colorimeter); conditions: 100 μM, topical, 3 applications for 5 days; FIG. 3
Protocol: The epidermis reconstructed from melanocytes of phototype VI (African), prepared under the conditions of Example 2, is used to screen the depigmenting activity of active agents.
The test products—arbutin at 100 μM and vitamin C phosphate at 280 μM—are applied topically to said reconstructed epidermis: 3 applications (3 μM/sample) for 5 days from the 5th day of immersion.
Vitamin C phosphate at 280 μM is also applied systemically, i.e., in the culture medium, throughout the duration of the epidermal reconstruction.
The control is the measurement of luminance of the reconstructed epidermis in the absence of test product.
On epidermis reconstructed on BPER (Episkin®), since the dermal support is translucent, it cannot be evaluated directly on the samples. The latter are therefore de-epidermalized and then digested with a solution of proteinase K. The lysates obtained are filtered on DEAE cellulose, which retains the melanin. The luminance is then measured on the filter.
The luminance L*, or lightness, of the sample is measured using a colorimeter. The darker a sample is, the weaker its luminance.

[7] = PTU 5 μM or 10 μM added at passage 2/3, non-treated cells multiply 2-fold
[8] = PTU 10 μM added at passage 4/5, non-treated control factor of 2

| IC50 ([2]; Homo sapiens, Melanocyte, cultures of melanocytes of phototype VI (African), read-out: IC50, concentration for 50% inhibition of melanogenesis compared with the control) [µM] | DOPA assay (tyrosinase DOPA-oxidase activity) of treated melanocytes [5] | Compound | adherent cells (viability) ([1]; PTU 5 μM) [%] | adherent cells (viability) ([1]; PTU 10 μM) [%] | cytotoxicity on melanocytes from African individuals ([1]; PTU 50 μM, most of the cells detach) | amount of pigment in the melanocytes (luminance L*) ([2]; PTU 10 μM, effect reversible when treatment is stopped, FIG. 1) | amount of pigment excreted by the melanocytes into the medium ([2]; after PTU treatment) | multiplication of melanocytes ([3]; PTU 5 μM instead of 10 μM, treated from the first passage) | factor of stimulation of multiplication at passage 8 [3, 7] | factor of stimulation of multiplication at passage 9 [3, 7] | multiplication factor of treated cells at passage 8 [3, 8] | multiplication factor of treated cells at passage 9 [3, 8] | percentage viability during multiplication ([3]; PTU 10 μM, non-treated control 80%) [%] | viable melanocytes after freezing, thawing and re-culturing [4] [%] | integration of treated melanocytes into the reconstructed epidermis [5] | increase in luminance versus control [6] |
| --- | --- | --- | --- | --- | --- | --- | --- | --- | --- | --- | --- | --- | --- | --- | --- | --- |
| 50 to 100 | reactive | S=C(Nc1ccccc1)Nc1nccs1 [PTU, 1-phenyl-3-(2-thiazolyl)-2-thiourea] | 95 | 95 | cytotoxic | decreases the amount of pigment in the melanocytes | reduced | results of the same order of magnitude | 5 | 15 | 5 | 15 | 95 | 80 | integrate into the reconstructed epidermis |  |
|  |  | OC[C@H]1O[C@@H](Oc2ccc(O)cc2)[C@H](O)[C@@H](O)[C@@H]1O [arbutin] |  |  |  |  |  |  |  |  |  |  |  |  |  | 1.8 points of L* |
